Source: patent US7067503B2, “17-aryl linker derivatised estrogen 3-sulphamates as inhibitors of steroid sulphatase” (priority 2000, dated 2006)
Read-outs that look alike come from different tables or passages of the source. Values belong to the compound of their own block, whether it stands above or below them.

Tests used:
STS = target: T1, STS (Homo sapiens, UniProt P08842); experiment: Plate assay, % inhibition
T1 sequence (P08842 22-583): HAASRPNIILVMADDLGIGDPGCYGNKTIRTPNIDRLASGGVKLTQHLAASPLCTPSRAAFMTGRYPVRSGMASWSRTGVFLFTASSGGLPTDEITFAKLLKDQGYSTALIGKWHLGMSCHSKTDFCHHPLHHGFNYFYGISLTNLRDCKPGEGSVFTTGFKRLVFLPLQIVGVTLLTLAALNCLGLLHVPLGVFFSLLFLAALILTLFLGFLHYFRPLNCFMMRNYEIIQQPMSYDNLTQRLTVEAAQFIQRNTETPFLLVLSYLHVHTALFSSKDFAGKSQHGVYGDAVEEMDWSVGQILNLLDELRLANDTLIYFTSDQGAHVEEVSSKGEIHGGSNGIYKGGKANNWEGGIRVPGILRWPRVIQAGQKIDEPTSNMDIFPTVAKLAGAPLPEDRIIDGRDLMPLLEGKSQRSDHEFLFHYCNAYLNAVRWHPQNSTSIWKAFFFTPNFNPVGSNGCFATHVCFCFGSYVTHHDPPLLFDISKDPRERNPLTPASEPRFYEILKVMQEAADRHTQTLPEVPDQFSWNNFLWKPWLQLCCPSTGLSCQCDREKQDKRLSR

T47D cell = T47D cell growth, % inhibition; assay type: cell-based; settings: Homo sapiens
steroid sulphatase = target: T2, steroid sulphatase (Homo sapiens, UniProt P08842); experiment: Inhibition of steroid sulphatase activity in placental microsomes (Protocol 2); assay type: biochemical; settings: for inhibition at 0.01 µM / inhibition at 0.1 µM / inhibition at 10 µM: read-out: Placental Microsomes, % inhibition
T2 construct: Sulphatase-positive human placenta from normal term pregnancies are thoroughly minced with scissors; from tissue; host or cells: human term placenta (2000 g supernatant / microsomes)

E1-STS enzyme = target: T3, E1-STS enzyme (Homo sapiens, UniProt P08842); settings: cited from earlier work
T3 sequence (P08842 22-583): T1 sequence (P08842 22-583)

tubulin = settings: at high concentrations; cited from earlier work
[1] = system: Meth A sarcoma, B16 melanoma or MDA-MB-435 estrogen receptor negative (ER−) breast cancer cells; settings: subcutaneous injection of tumour cells; cited from earlier work
T47D cells = experiment: IC50 in T47D cells (table footnote); assay type: cell-based; settings: Homo sapiens
Experimental: The STS inhibition provided by the compounds was determined in accordance with a plate assay and the Protocols set out herein.

[2] = in vivo; cited from earlier work
[3] = rats, higher than that of estradiol; cited from earlier work
[4] = rats; cited from earlier work
[5] = 0.1 μM, -ve % means stimulation
[6] = read-out: Plate assay % inhibition
[7] = 10 nM, superscript 1 or 2 = run with the reference values of that footnote, -ve % means stimulation
[8] = 1 μM, superscript 1 or 2 = run with the reference values of that footnote, -ve % means stimulation
[9] = 0.1 μM, read-out: Plate Assay, % inhibition
[10] = 1 μM, read-out: Plate Assay, % inhibition
[11] = 10 μM, read-out: Plate Assay, % inhibition

melting point: 173 to 177 °C
Compound: COc1cc2c(cc1O)CCC1C2CC[C@@]2(C)C1CC[C@@]2(O)Cc1cccc(Br)c1 (stereo partly drawn)

melting point: 250 to 255 °C
Compound: C[C@]12CCC3c4ccc(O)cc4CCC3C1CC[C@@]2(O)Cc1ccccn1 (stereo partly drawn)

Compound: C[C@]12CC[C@@H]3c4ccc(OS(N)(=O)=O)cc4CC[C@H]3[C@@H]1CC[C@@H]2O [BLE00084]
Plate assay % inhibition (STS; [5]): 4%
Plate assay % inhibition (STS; 10 μM, -ve % means stimulation): 23%

Compound: CC1=C2CCC3c4ccc(OS(N)(=O)=O)cc4CCC3C2CC1 (stereo not drawn) [BLE00086]
inhibition at 10 µM (T47D cell): 93.2%
inhibition at 0.1 µM (STS; [6]): 8%
inhibition at 1 µM (STS; [6]): 3%
inhibition at 10 µM (STS; [6]): 14%

Compound: COc1cc2c(cc1O)CCC1C2CC[C@@]2(C)C1CC[C@@]2(O)Cc1ccc(C(C)(C)C)cc1 (stereo partly drawn) [BLE01008, 3,17β-Dihydroxy-17α-(4-tert-butylbenzyl)-2-methoxyestra-1,3,5(10)-triene]
melting point: 223 to 225 °C
inhibition at 0.1 µM (STS; [6]): -12%
inhibition at 1 µM (STS; [6]): -15%

Compound: COc1cc2c(cc1O)CCC1C2CC[C@@]2(C)C1CC[C@@]2(O)Cc1ccccc1 (stereo partly drawn) [BLE01014, 3,17β-Dihydroxy-17α-benzyl-2-methoxyestra-1,3,5(10)-triene]
melting point: 209 to 213 °C
inhibition at 0.1 µM (STS; [6]): -14%
inhibition at 1 µM (STS; [6]): -14%

Compound: COc1cc2c(cc1OS(N)(=O)=O)CC[C@@H]1[C@@H]2CC[C@@]2(C)[C@H]1CC[C@@]2(O)Cc1ccc(C(C)(C)C)cc1 [BLE01016, 3-O-Sulfamate 17β-hydroxy-17α-(4-tert-butylbenzyl)-2-methoxyestra-1,3,5(10) -triene]
IC50 (steroid sulphatase): 4300 nM
inhibition at 0.1 µM (STS; [6]): -14%
inhibition at 1 µM (STS; [6]): -10%
inhibition at 10 µM (STS; [6]): -3%

Compound: COc1cc2c(cc1OS(N)(=O)=O)CC[C@@H]1[C@@H]2CC[C@@]2(C)[C@H]1CC[C@@]2(O)Cc1ccccc1 [BLE01018, 3-O-Sulfamate 17β-hydroxy-17α-benzyl-2-methoxyestra-1,3,5(10)-triene]
IC50 (steroid sulphatase): 430 nM
inhibition at 0.1 µM (STS; [6]): -19%
inhibition at 1 µM (STS; [6]): -12%

Compound: CC12CCC3c4ccc(OS(N)(=O)=O)cc4CCC3C1CCC2OS(N)(=O)=O (stereo not drawn) [BLE99031B]
IC50 (steroid sulphatase): 20 nM
inhibition at 0.1 µM (STS; [6]): 7%
inhibition at 1 µM (STS; [6]): 12%
inhibition at 10 µM (STS; [6]): 32%

Compound: CC(=O)NS(=O)(=O)O[C@H]1CCC2C3CCc4cc(O)ccc4C3CC[C@@]21C (stereo partly drawn) [BLE99058]
Placental Microsomes % inhibition (steroid sulphatase; [7]): 0.9^1%
Placental Microsomes % inhibition (steroid sulphatase; [8]): 7.8^1%
Plate assay % inhibition (STS; [5]): 4%
Plate assay % inhibition (STS; 1 μM, -ve % means stimulation): 1%

Compound: C[C@]12CCC3c4ccc(O)cc4CCC3C1CC[C@@H]2OS(=O)(=O)N(Cc1ccccc1)Cc1ccccc1 (stereo partly drawn) [BLE99060]
Placental Microsomes % inhibition (steroid sulphatase; [7]): −3.2^2%
Placental Microsomes % inhibition (steroid sulphatase; [8]): 1.36^2%

Compound: C[C@]12CCC3c4ccc(OS(N)(=O)=O)cc4CCC3C1CC[C@@H]2OS(=O)(=O)N(Cc1ccccc1)Cc1ccccc1 (stereo partly drawn) [BLE99063]
Placental Microsomes % inhibition (steroid sulphatase; [7]): −1.9^1%
Placental Microsomes % inhibition (steroid sulphatase; [8]): 38.2^1%
Plate assay % inhibition (STS; [5]): 0%
Plate assay % inhibition (STS; 1 μM, -ve % means stimulation): 15%

Compound: CC(=O)NS(=O)(=O)O[C@H]1CCC2C3CCc4cc(OS(N)(=O)=O)ccc4C3CC[C@@]21C (stereo partly drawn) [BLE99065]
Placental Microsomes % inhibition (steroid sulphatase; [7]): 9.8^1%
Placental Microsomes % inhibition (steroid sulphatase; [8]): 91.0^1%
Plate assay % inhibition (STS; [5]): 7%
Plate assay % inhibition (STS; 1 μM, -ve % means stimulation): 5%
Plate assay % inhibition (STS; 10 μM, -ve % means stimulation): 23%

Compound: C[C@]12CCC3c4ccc(O)cc4CCC3C1CC[C@H]2OS(=O)(=O)N(Cc1ccccc1)Cc1ccccc1 (stereo partly drawn) [BLE99066]
Placental Microsomes % inhibition (steroid sulphatase; [7]): 1.4^1%
Placental Microsomes % inhibition (steroid sulphatase; [8]): 4.5^1%
Plate assay % inhibition (STS; [5]): 11%
Plate assay % inhibition (STS; 1 μM, -ve % means stimulation): 5%
Plate assay % inhibition (STS; 10 μM, -ve % means stimulation): 27%

Compound: CN(C)S(=O)(=O)O[C@H]1CCC2C3CCc4cc(O)ccc4C3CC[C@@]21C (stereo partly drawn) [BLE99067]
Placental Microsomes % inhibition (steroid sulphatase; [7]): −0.1^1%
Placental Microsomes % inhibition (steroid sulphatase; [8]): 8.7^1%
Plate assay % inhibition (STS; [5]): −5%
Plate assay % inhibition (STS; 1 μM, -ve % means stimulation): −1%
Plate assay % inhibition (STS; 10 μM, -ve % means stimulation): 50%

Compound: C[C@]12CCC3c4ccc(OS(N)(=O)=O)cc4CCC3C1CC[C@H]2OS(=O)(=O)N(Cc1ccccc1)Cc1ccccc1 (stereo partly drawn) [BLE99068]
Placental Microsomes % inhibition (steroid sulphatase; [7]): 4.9^1%
Placental Microsomes % inhibition (steroid sulphatase; [8]): 58.2^1%
Plate assay % inhibition (STS; [5]): −18%
Plate assay % inhibition (STS; 1 μM, -ve % means stimulation): −1%
Plate assay % inhibition (STS; 10 μM, -ve % means stimulation): 19%

Compound: CN(C)S(=O)(=O)OC1CCC2C3CCc4cc(OS(N)(=O)=O)ccc4C3CCC12C (stereo not drawn) [BLE99069]
Placental Microsomes % inhibition (steroid sulphatase; [7]): 30.3^1%
Placental Microsomes % inhibition (steroid sulphatase; [8]): 96.3^1%
Plate assay % inhibition (STS; [5]): 3%
Plate assay % inhibition (STS; 1 μM, -ve % means stimulation): 10%

Compound: CCCCCN(CCCCC)S(=O)(=O)O[C@H]1CCC2C3CCc4cc(O)ccc4C3CC[C@@]21C (stereo partly drawn) [BLE99073]
Placental Microsomes % inhibition (steroid sulphatase; [7]): 1.2^2%
Placental Microsomes % inhibition (steroid sulphatase; [8]): −11.8^2%

Compound: CCCCCN(CCCCC)S(=O)(=O)O[C@H]1CCC2C3CCc4cc(OS(N)(=O)=O)ccc4C3CC[C@@]21C (stereo partly drawn) [BLE99074]
Placental Microsomes % inhibition (steroid sulphatase; [8]): 23.7^2%

Compound: COc1cc2c(cc1OS(N)(=O)=O)CC[C@@H]1[C@@H]2CC[C@]2(C)C(=O)CC[C@@H]12 [Compound 2-MOEMATE, 2-methoxyoestrone-3-O-sulphamate, reference compound]
Plate assay % inhibition (STS; [5]): 15%
Plate assay % inhibition (STS; 1 μM, -ve % means stimulation): 42%
Plate assay % inhibition (STS; 10 μM, -ve % means stimulation): 88%
potency as a steroid sulphatase inhibitor relative to EMATE (E1-STS enzyme): equipotent with EMATE

Compound: COc1cc2c(cc1O)CC[C@@H]1[C@@H]2CC[C@]2(C)[C@@H](O)CC[C@@H]12 [Compound 2-MeOE2, 2-methoxyoestradiol]
inhibition of colchicine binding to tubulin (tubulin): weak inhibitor of colchicine binding to tubulin
growth of tumours in vivo [1]: inhibits the growth of tumours

Compound: CSc1cc2c(cc1OS(N)(=O)=O)CCC1C2CCC2(C)C1CCC2(O)Cc1ccc(C(C)(C)C)cc1 (stereo not drawn) [Compound 3]
inhibition at 0.01 µM (steroid sulphatase; 10 nM): 17.6%
inhibition at 0.1 µM (steroid sulphatase; 100 nM): 56%
inhibition at 10 µM (steroid sulphatase; 10 μM): 86.4%
IC50 (steroid sulphatase; read-out: Placental Microsomes, IC50): 80 nM
inhibition at 0.1 µM (STS; [9]): < 1%
inhibition at 1 µM (STS; [10]): < 1%
inhibition at 10 µM (STS; [11]): 48%

Compound: NS(=O)(=O)Oc1ccc(C(=O)c2ccccc2)cc1 [Compound 6]
Plate assay % inhibition (STS; 0.1 μM): <1%
Plate assay % inhibition (STS; 1 μM): 1%
Plate assay % inhibition (STS; 10 μM): 11%

Compound: CSc1cc2c(cc1OS(N)(=O)=O)CCC1C2CCC2(C)C(=O)CCC12 (stereo not drawn) [Compound 7]
inhibition at 0.01 µM (steroid sulphatase; 10 nM): 5.4%
inhibition at 0.1 µM (STS; [9]): 3%
inhibition at 1 µM (STS; [10]): 53%
inhibition at 10 µM (STS; [11]): 55%
IC50 (T47D cells): 2.5 nM

Plate assay % inhibition (STS; 0.1 μM): <1%
Plate assay % inhibition (STS; 1 μM): <4%
Plate assay % inhibition (STS; 10 μM): 14%
Compound: NS(=O)(=O)Oc1ccc(C(=O)C=Cc2ccccc2)cc1 [Compound 8]

Placental Microsomes % inhibition (steroid sulphatase; 10 nM): <5%
Placental Microsomes % inhibition (steroid sulphatase; column head printed "μM"): 66.0%
Plate assay % inhibition (STS; 0.1 μM): <1%
Plate assay % inhibition (STS; 1 μM): 1%
Plate assay % inhibition (STS; 10 μM): 16%
Compound: NS(=O)(=O)Oc1ccc2oc3ccccc3c2c1 [Compound 9]

Compound: C[C@]12CC[C@@H]3c4ccc(OS(=O)(=O)O)cc4CC[C@H]3[C@@H]1CCC2=O [Compound E1S, oestrone sulphate]
half-life in blood [2]: 10 to 12 h

Compound: CC12CCC3c4ccc(OS(N)(=O)=O)cc4CCC3C1CCC2=O (stereo not drawn) [EMATE, oestrone-3-sulphamate, reference compound]
oral uterotrophic activity relative to estradiol [3]: 100 times
IC50 (steroid sulphatase): 18 nM
Placental Microsomes % inhibition (steroid sulphatase; human): 97.8%
inhibition at 0.01 µM (steroid sulphatase): 27.3%
inhibition at 0.1 µM (steroid sulphatase): 85.1%
inhibition at 10 µM (steroid sulphatase): 99.5%
mode of E1-STS inhibition (E1-STS enzyme): time- and concentration-dependent manner
memory effect [4]: memory enhancing effect

Compound: COc1cc2c(cc1OS(N)(=O)=O)CCC1C2CCC2(C)C(OS(N)(=O)=O)CCC12 (stereo not drawn) [OSO2NH2, OMe, C-β-OSO2NH2, α-H]
inhibition at 0.1 µM (STS; [6]): 7%
inhibition at 1 µM (STS; [6]): 12%
inhibition at 10 µM (STS; [6]): 32%

Compound: oestrone-3-N-sulphamate
mode of E1-STS inhibition (E1-STS enzyme): weaker non-time-dependent inactivators

Compound: oestrone-3-S-sulphamate
mode of E1-STS inhibition (E1-STS enzyme): weaker non-time-dependent inactivators
